Reference: ChEMBL document CHEMBL1201862, “PubChem BioAssay data set” (2004)
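Step 1: Grow cells in 96-well plates. Step 2: Expose to compound for 48 hours at 5 concentrations. Step 3: Interpolate endpoints linearly; if unreached, use highest concentration. Abbreviation: GI50, concentration required for 50% inhibition of growth.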 Active and inactive are the calls of the source. No stated cut-off is given here; in the data, active = GI50 up to about 1.1 µM and inactive = higher.

Columns and labels:
Assay in all cases: NCI anticancer screen, dose series, 48 h
786-0 = test system: 786-0
A498 = test system: A498
A549 = test system: A549
ACHN = test system: ACHN
BT-549 = test system: BT-549
CAKI-1 = test system: CAKI-1
CCRF-CEM = test system: CCRF-CEM
COLO 205 = test system: COLO 205
DU-145 = test system: DU-145
EKVX = test system: EKVX
HCC 2998 = test system: HCC 2998
HCT-116 = test system: HCT-116
HCT-15 = test system: HCT-15
HL-60 = test system: HL-60
HOP-62 = test system: HOP-62
HOP-92 = test system: HOP-92
HT-29 = test system: HT-29
Hs-578T = test system: Hs-578T
IGROV-1 = test system: IGROV-1
K562 = test system: K562
KM12 = test system: KM12
LOX IMVI = test system: LOX IMVI
M14 = test system: M14
MCF7 = test system: MCF7
MDA-MB-231 = test system: MDA-MB-231
MDA-MB-435 = test system: MDA-MB-435
MDA-N = test system: MDA-N
MOLT-4 = test system: MOLT-4
Malme-3M = test system: Malme-3M
NCI-H226 = test system: NCI-H226
NCI-H23 = test system: NCI-H23
NCI-H460 = test system: NCI-H460
NCI-H522 = test system: NCI-H522
NCI/ADR-RES = test system: NCI/ADR-RES
OVCAR-3 = test system: OVCAR-3
OVCAR-4 = test system: OVCAR-4
OVCAR-5 = test system: OVCAR-5
OVCAR-8 = test system: OVCAR-8
PC-3 = test system: PC-3
RPMI-8226 = test system: RPMI-8226
RXF 393 = test system: RXF 393
SF-268 = test system: SF-268
SF-295 = test system: SF-295
SK-MEL-28 = test system: SK-MEL-28
SK-MEL-2 = test system: SK-MEL-2
SK-MEL-5 = test system: SK-MEL-5
SK-OV-3 = test system: SK-OV-3
SN12C = test system: SN12C
SNB-19 = test system: SNB-19
SNB-75 = test system: SNB-75
SW-620 = test system: SW-620
T47D = test system: T47D
TK-10 = test system: TK-10
U-251 = test system: U-251
UACC-257 = test system: UACC-257
UACC-62 = test system: UACC-62
UO-31 = test system: UO-31
SF-539 = test system: SF-539

Measured: GI50

CC1OC(O[C@H]2C3C=CO[C@@H](OC4OC(CO)C(O)C(O)C4O)C3[C@@]3(COC(=O)/C=C/c4ccccc4)O[C@@H]23)C(O)C(O)C1O (some centres not stated)
> 100 µM: HCT-15
inactive: 786-0 > 100 µM | A498 > 100 µM | A549 > 100 µM | ACHN > 100 µM | BT-549 > 100 µM | CAKI-1 > 100 µM | CCRF-CEM > 100 µM | COLO 205 > 100 µM | DU-145 > 100 µM | EKVX > 100 µM | HCC 2998 > 100 µM | HCT-116 > 100 µM | HL-60 > 100 µM | HOP-62 > 100 µM | HOP-92 > 100 µM | HT-29 > 100 µM | Hs-578T > 100 µM | IGROV-1 > 100 µM | K562 > 100 µM | KM12 > 100 µM | LOX IMVI > 100 µM | M14 > 100 µM | MCF7 > 100 µM | MDA-MB-231 > 100 µM | MDA-MB-435 > 100 µM | MDA-N > 100 µM | MOLT-4 > 100 µM | Malme-3M > 100 µM | NCI-H226 > 100 µM | NCI-H23 > 100 µM | NCI-H460 > 100 µM | NCI-H522 > 100 µM | NCI/ADR-RES > 100 µM | OVCAR-3 > 100 µM | OVCAR-4 > 100 µM | OVCAR-5 > 100 µM | OVCAR-8 > 100 µM | PC-3 > 100 µM | RPMI-8226 > 100 µM | RXF 393 > 100 µM | SF-268 > 100 µM | SF-295 > 100 µM | SK-MEL-28 > 100 µM | SK-MEL-2 > 100 µM | SK-MEL-5 > 100 µM | SK-OV-3 > 100 µM | SN12C > 100 µM | SNB-19 > 100 µM | SNB-75 > 100 µM | SW-620 > 100 µM | T47D > 100 µM | TK-10 > 100 µM | U-251 > 100 µM | UACC-257 > 100 µM | UACC-62 > 100 µM | UO-31 > 100 µM

CC1=C(C)SC(=C2Sc3c(n(C)c(=O)[nH]c3=O)S2)S1
> 100 µM: HCT-15
inactive: 786-0 > 100 µM | A498 > 100 µM | A549 > 100 µM | ACHN > 100 µM | BT-549 > 100 µM | CAKI-1 > 100 µM | CCRF-CEM > 100 µM | COLO 205 > 100 µM | DU-145 > 100 µM | EKVX > 100 µM | HCC 2998 > 100 µM | HCT-116 > 100 µM | HL-60 > 100 µM | HOP-62 > 100 µM | HOP-92 > 100 µM | HT-29 > 100 µM | Hs-578T > 100 µM | IGROV-1 > 100 µM | K562 > 100 µM | KM12 > 100 µM | LOX IMVI > 100 µM | M14 > 100 µM | MCF7 > 100 µM | MDA-MB-231 > 100 µM | MDA-MB-435 > 100 µM | MDA-N > 100 µM | MOLT-4 > 100 µM | Malme-3M > 100 µM | NCI-H226 > 100 µM | NCI-H23 > 100 µM | NCI-H460 > 100 µM | NCI-H522 > 100 µM | NCI/ADR-RES > 100 µM | OVCAR-3 > 100 µM | OVCAR-4 > 100 µM | OVCAR-5 > 100 µM | OVCAR-8 > 100 µM | PC-3 > 100 µM | RPMI-8226 > 100 µM | RXF 393 > 100 µM | SF-268 > 100 µM | SF-295 > 100 µM | SF-539 > 100 µM | SK-MEL-28 > 100 µM | SK-MEL-2 > 100 µM | SK-MEL-5 > 100 µM | SK-OV-3 > 100 µM | SN12C > 100 µM | SNB-19 > 100 µM | SNB-75 > 100 µM | SW-620 > 100 µM | T47D > 100 µM | TK-10 > 100 µM | U-251 > 100 µM | UACC-257 > 100 µM | UACC-62 > 100 µM | UO-31 > 100 µM

CC(C)(C)CN1[C@@H]2CCCC[C@H]2N(CC(C)(C)C)P1(=O)C(O)/C=C/c1ccccc1 (some centres not stated)
18.5 µM: HCT-15
inactive: 786-0 39.4 µM | A498 28.6 µM | A549 25.1 µM | ACHN 28.9 µM | BT-549 74.1 µM | CAKI-1 59.8 µM | CCRF-CEM 34.3 µM | COLO 205 17.3 µM | DU-145 58.1 µM | EKVX 50.1 µM | HCC 2998 28.5 µM | HCT-116 29.8 µM | HL-60 32 µM | HOP-62 50.2 µM | HOP-92 28.8 µM | HT-29 31.5 µM | Hs-578T 29.9 µM | IGROV-1 25.6 µM | K562 42.6 µM | KM12 33.7 µM | LOX IMVI 18.7 µM | M14 27.1 µM | MCF7 28.6 µM | MDA-MB-231 45.9 µM | MDA-MB-435 42.1 µM | MDA-N 35.3 µM | MOLT-4 35.5 µM | Malme-3M 38.5 µM | NCI-H226 22.7 µM | NCI-H23 56.6 µM | NCI-H460 26.2 µM | NCI-H522 26.7 µM | NCI/ADR-RES 32.7 µM | OVCAR-3 34.6 µM | OVCAR-4 45.4 µM | OVCAR-5 50.4 µM | OVCAR-8 62.5 µM | PC-3 37.8 µM | RPMI-8226 19.5 µM | RXF 393 30.3 µM | SF-268 39 µM | SF-295 29.7 µM | SK-MEL-28 76.7 µM | SK-MEL-2 33.3 µM | SK-MEL-5 18.3 µM | SK-OV-3 51.8 µM | SN12C 22.2 µM | SNB-19 26.8 µM | SNB-75 21.3 µM | SW-620 34.2 µM | T47D 26.1 µM | TK-10 50.4 µM | U-251 41.4 µM | UACC-257 30.1 µM | UACC-62 35.2 µM | UO-31 29.5 µM
